# In US20090215895A1, “Therapeutic and carrier molecules” (PEPLIN BIOLIPIDS PTY LTD, priority 2004, published 2009):
# Columns and labels:
# [1] = system: JNK; test: TNF-stimulated MAP kinase activity in HUVEC; type: cell-based, human; conditions: HUVEC pre-treated with the fatty acid
# Description: (§1) ERK and p38 were precipitated with anti-ERK2 (C-14, sc-154) and anti-p38 (C-20, sc-535) antibody, respectively (Santa Cruz Biotech) and the activity determined using myelin basic protein as a substrate (Hii et al, 1995 supra, Hii et al, 1998 supra). JNK activity was determined in a solid phase assay using GST c-Jun (residues-1-79) as a substrate (Hii et al, 1995 supra, Hii et al, 1998 supra).
# [2] = system: ERK; test: TNF-stimulated MAP kinase activity in HUVEC; type: cell-based, human; conditions: HUVEC pre-treated with the fatty acid
# Description: as §1
# [3] = Tolerability of intravenous MP3; type: in vivo, mice; conditions: 50 mg/kg intravenously, 4 days
# Excerpt: In accordance with the present invention, a novel engineered polyunsaturated fatty acid, β-oxa-23:4n-6 (MP3) (FIG. 5) is identified which has the hall-marks of a new class of pharmaceuticals based on polyunsaturated fatty acids and which can be used to prevent and/or treat cardiovascular disease. […] The focus of this embodiment of the subject invention is, therefore, the efficacy of MP3 at suppressing adhesion molecule expression in vivo and the development of atherosclerosis.
# [4] = Delayed type hypersensitivity (DTH) to sheep erythrocytes; type: in vivo, BALB/c mice; conditions: 10 mg/kg intraperitoneally prior to antigen challenge
# Description: FIG. 14 is a representation showing (A) effect of MP3 on in vivo inflammatory response measured as delayed type hypersensitivity (DTH) to sheep erythrocytes and LPS-induced influx of neutrophils and mononuclear cells in the peritoneal cavity in BALB/c mice. In the DTH experiments mice were injected with sheep erythrocytes subcutaneously, challenged with the antigen in the hind foot pad 6 days later and the amount of foot pad swelling measured 48 hr later. One hour prior to challenge mice were given 10 mg/kg body weight of β-oxa fatty acid in 7% w/v, DMSO as vehicle intraperitoneally. […] The data, expressed as % of control, are presented as mean±SEM of 10 and 5 mice for DTH and peritoneal inflammation, respectively. […] The data, expressed as % of control, are presented as mean±SEM of ten mice per group and is representative of two experimental runs. […]
# Effect of MP3 (β-oxa-23:4n-6) on the in vivo inflammatory response was measured as a delayed type hypersensitivity (DTH) reaction and LPS-induced influx of neutrophils and mononuclear cells in the peritoneal cavity in BALB/c mice. For DTH experiments, mice were injected subcutaneously with 100 μl of 10% hematocrit sheep erythrocytes, challenged with the antigen (25 μl of 40%) in the hind foot pad 6 days later and the degree of foot pad swelling measured 48 hr later (Ferrante et al, Clin. & Exp. Immunol. 38:70-76, 1979). […]
# [5] = system: NFκB p65; test: TNF-stimulated nuclear translocation of NFκB in HUVEC; type: cell-based, human; conditions: 20 μmol/l
# Description: FIG. 17 is a representation showing (A) the effect of MP3 (β-oxa 23:4n-6) and DHA on TNF-induced degradation of IκBα in HUVEC. Cells were pre-treated with the fatty acids (20 μmol/l) for 30 min and then stimulated with TNF (125 U/ml) for 10 min. After cell lysis the proteins were analyzed by Western blots using anti-IκBα antibodies. (B) The effects of β-oxa-23:4n-6 on TNF-induced activation of transcriptional factor, NFκB in HUVEC. Cells were pre-treated with β-oxa-23:4n-6 (20 μmol/l) for 30 min and then stimulated with TNF for 2 hr. After cell lysis, nuclear fractions were prepared, nuclear proteins separated by SDS PAGE (12% w/v gel), transferred to nitrocellulose and probed with an anti-NFκB p65 antibody (Santa Cruz). […] (C) The effect of β-oxa 23:4n-6 on TNF-stimulated activation of IKK. Cells were pre-treated with β-oxa 23:4n-6 (20 μmol/l) for 30 min and then stimulated with TNF for 5 min. After cell lysis IKK was immunoprecipitated with anti-IKKα antibody and kinase activity determined. […]
# Proteins (50 μg) were separated by SDS PAGE (12% w/v gel), transferred to nitrocellulose and probed with an anti-NFκB p65 or anti-IκBα antibody (Santa Cruz Biotech, Santa Cruz, Calif.). Immunocomplexes were detected by enhanced chemiluminescence (Hii et al, 1998 supra).
# [6] = system: HUVEC; test: Agonist-enhanced neutrophil adherence to HUVEC; type: cell-based, human; conditions: for Inhibition of TNF-α-enhanced neutrophil adhesion to HUVEC: 20 μmol/l, 1 hr pre-treatment, TNF 4 hr
# Procedure, shortened: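 HUVEC were pre-treated 60 min at 37° C. with fatty acids (20 μmol/l), stimulated with TNF (125 U/200 μl) for 4 hr, then co-incubated 30 min with neutrophils (5×10^5 cells/well). Adherence expressed as % of control, mean±SEM of three triplicate experiments.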
compound,measurement,setting,value
"CCCCC/C=C\C/C=C\C/C=C\C/C=C\CCCCOCC(=O)O [MP3, β-oxa-23:4n-6]",Effect on ability of TNF to stimulate JNK,[1],did not affect
same,Effect on ability of TNF to stimulate ERK,[2],did not affect
same,Observable signs of distress,[3],did not cause any observable signs of distress
same,Delayed type hypersensitivity reaction (foot pad swelling),[4],inhibited in ability to manifest a delayed type hypersensitivity reaction
same,Reduction of TNF-stimulated nuclear accumulation of NFκB,"[5]; 30 min, TNF 2 hr, mean±SEM, three experiments",66±2%
same,Translocation of NFκB to the nucleus,[5]; TNF,inhibition of translocation of NFκB to the nucleus
same,Inhibition of LPS- or PMA-induced neutrophil adhesion to HUVEC,[6],inhibited the increase in neutrophil adhesion
same,Inhibition of TNF-α-enhanced neutrophil adhesion to HUVEC,[6],greatest suppression
same,Inhibition of TNF-α-enhanced neutrophil adhesion to HUVEC,[6]; listed as β-oxa 23:4n-6,most active
same,Inhibition of TNF-α-enhanced neutrophil adhesion to HUVEC,[6]; listed as β-oxa-23:4n-6,inhibited their ability to be stimulated
same,Concentration with significant suppression of TNF-α-induced neutrophil adhesion,[6]; pre-treatment time of 1 hr,≥ 5 µmol/L
